In ChEMBL document CHEMBL4402589, “Discovery of a Potent and Selective NF-κB-Inducing Kinase (NIK) Inhibitor That Has Anti-inflammatory Effects in Vitro and in Vivo” (J Med Chem, 2020):
Activity calls are given as the source filed them. The calls are words filed in the database; no cut-off is given here.

Legend:
[1] = system: Mus musculus; assay: Antiinflammatory activity in CCl4-induced C57BL/6 mouse model of liver injury assessed as reduction in immune cell infiltration in liver at 40 mg/kg, po administered 30 mins prior to CCl4 addition followed by compound redosing at 3 hrs interval for 9 hrs and measured 12 hrs […] by F4/80/DAPI staining based immunofluorescence assay; type: functional, organism-based
[2] = target: T1, Mitogen-activated protein kinase kinase kinase 14 (Homo sapiens, UniProt Q99558); assay: Binding affinity to wild-type human partial length NIK (L318 to P947 residues) expressed in mammalian expression system by Kinomescan method
T1 sequence (Q99558 whole entry, the tested form may be a part): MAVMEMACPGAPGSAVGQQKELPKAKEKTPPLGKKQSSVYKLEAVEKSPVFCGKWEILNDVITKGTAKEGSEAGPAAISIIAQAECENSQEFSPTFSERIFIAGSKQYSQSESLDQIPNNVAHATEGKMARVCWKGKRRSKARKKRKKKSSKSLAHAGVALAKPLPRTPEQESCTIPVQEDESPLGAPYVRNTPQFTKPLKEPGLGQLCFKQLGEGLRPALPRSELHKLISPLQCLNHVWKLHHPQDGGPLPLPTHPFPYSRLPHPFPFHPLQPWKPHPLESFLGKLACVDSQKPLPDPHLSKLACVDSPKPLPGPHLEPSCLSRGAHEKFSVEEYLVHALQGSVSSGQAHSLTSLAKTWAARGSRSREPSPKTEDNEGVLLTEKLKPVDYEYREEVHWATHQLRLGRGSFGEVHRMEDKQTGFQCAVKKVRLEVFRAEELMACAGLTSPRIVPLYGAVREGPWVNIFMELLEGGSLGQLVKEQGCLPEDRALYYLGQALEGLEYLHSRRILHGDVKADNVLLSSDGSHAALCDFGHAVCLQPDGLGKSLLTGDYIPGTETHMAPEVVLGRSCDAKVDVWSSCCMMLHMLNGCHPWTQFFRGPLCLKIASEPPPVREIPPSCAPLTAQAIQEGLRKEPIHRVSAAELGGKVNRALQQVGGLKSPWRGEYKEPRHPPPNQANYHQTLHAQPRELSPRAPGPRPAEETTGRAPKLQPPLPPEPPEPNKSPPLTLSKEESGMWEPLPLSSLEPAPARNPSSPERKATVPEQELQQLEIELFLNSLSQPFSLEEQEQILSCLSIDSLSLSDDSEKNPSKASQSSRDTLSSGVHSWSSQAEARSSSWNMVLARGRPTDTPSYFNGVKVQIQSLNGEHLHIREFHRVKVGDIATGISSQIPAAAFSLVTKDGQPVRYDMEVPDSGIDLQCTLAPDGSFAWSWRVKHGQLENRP

[3] = system: Hepatocyte; assay: Down regulation of NIK expression in NIK/p100 adenoviruses infected C57BL/6 mouse primary hepatocytes at 1 to 10 uM measured after 16 hrs by Western blot analysis; type: functional, cell-based
[4] = Apparent volume of distribution in ICR mouse at 5 mg/kg, iv by LC-MS/MS analysis; type: ADME, organism-based; settings: in vivo, read-out: Vz
[5] = system: Mus musculus; assay: Antiinflammatory activity in CCl4-induced C57BL/6 mouse model of liver injury assessed as reduction in CXCL5 mRNA expression in liver at 40 mg/kg, po administered 30 mins prior to CCl4 addition followed by compound redosing at 3 hrs interval for 9 hrs and measured 12 hrs […] by SYBR staining based RT-qPCR analysis; type: functional, organism-based
[6] = target: Mitogen-activated protein kinase kinase kinase 14 (Mus musculus) (UniProt Q9WUL6); assay: Inhibition of NIK in NIK adenovirus infected C57BL/6 mouse primary hepatocytes assessed as reduction in CXCL5 mRNA expression measured after 16 hrs by SYBR staining based RT-qPCR analysis
Chain of Mitogen-activated protein kinase kinase kinase 14 (Mus musculus) (Q9WUL6 whole entry, the tested form may be a part): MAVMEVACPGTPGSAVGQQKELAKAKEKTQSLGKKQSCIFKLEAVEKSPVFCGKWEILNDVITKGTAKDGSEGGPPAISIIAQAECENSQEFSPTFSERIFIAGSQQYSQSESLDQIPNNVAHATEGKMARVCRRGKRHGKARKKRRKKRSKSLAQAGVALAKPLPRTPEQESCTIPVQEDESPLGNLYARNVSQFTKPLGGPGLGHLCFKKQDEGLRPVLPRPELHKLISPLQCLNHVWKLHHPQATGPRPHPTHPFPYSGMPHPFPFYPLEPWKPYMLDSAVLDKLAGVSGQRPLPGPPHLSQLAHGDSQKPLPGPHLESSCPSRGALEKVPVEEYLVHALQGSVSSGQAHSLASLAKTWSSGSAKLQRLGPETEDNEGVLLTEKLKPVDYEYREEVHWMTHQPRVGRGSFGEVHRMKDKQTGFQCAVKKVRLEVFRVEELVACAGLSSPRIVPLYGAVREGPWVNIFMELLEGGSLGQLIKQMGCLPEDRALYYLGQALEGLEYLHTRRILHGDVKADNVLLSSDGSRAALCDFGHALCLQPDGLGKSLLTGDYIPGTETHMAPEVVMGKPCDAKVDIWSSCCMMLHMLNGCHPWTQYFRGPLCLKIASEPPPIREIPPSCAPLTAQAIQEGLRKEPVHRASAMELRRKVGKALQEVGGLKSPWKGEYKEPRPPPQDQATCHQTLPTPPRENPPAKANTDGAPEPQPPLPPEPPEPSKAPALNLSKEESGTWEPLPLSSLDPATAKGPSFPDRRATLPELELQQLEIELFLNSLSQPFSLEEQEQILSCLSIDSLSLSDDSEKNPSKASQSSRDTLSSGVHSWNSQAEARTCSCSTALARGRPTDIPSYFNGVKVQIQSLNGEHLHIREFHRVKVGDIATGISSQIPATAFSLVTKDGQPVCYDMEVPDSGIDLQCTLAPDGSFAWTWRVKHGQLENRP

[7] = system: Mus musculus; assay: Antiinflammatory activity in CCl4-induced C57BL/6 mouse model of liver injury assessed as reduction in serum ALT level at 40 mg/kg, po administered 30 mins prior to CCl4 addition followed by compound redosing at 3 hrs interval for 9 hrs and measured 12 hrs […]; type: functional, organism-based
[8] = target: Mitogen-activated protein kinase kinase kinase 14 (Mus musculus) (UniProt Q9WUL6); assay: Inhibition of NIK in NIK adenovirus infected C57BL/6 mouse primary hepatocytes assessed as reduction in TNFalpha mRNA expression measured after 16 hrs by SYBR staining based RT-qPCR analysis
[9] = Cmax in ICR mouse at 15 mg/kg, po by LC-MS/MS analysis; type: ADME, organism-based; parameters: dose 15 mg/kg, route oral; settings: in vivo
[10] = Tmax in ICR mouse at 15 mg/kg, po by LC-MS/MS analysis; type: ADME, organism-based; settings: in vivo
[11] = Tmax in ICR mouse at 5 mg/kg, iv by LC-MS/MS analysis; type: ADME, organism-based; settings: in vivo
[12] = Clearance in ICR mouse at 5 mg/kg, iv by LC-MS/MS analysis; type: ADME, organism-based; settings: in vivo
[13] = Cmax in ICR mouse at 5 mg/kg, iv by LC-MS/MS analysis; type: ADME, organism-based; parameters: dose 5 mg/kg, route intravenous; settings: in vivo
[14] = AUC (0 to t) in ICR mouse at 15 mg/kg, po by LC-MS/MS analysis; type: ADME, organism-based; settings: in vivo
[15] = system: Mus musculus; assay: Antiinflammatory activity in CCl4-induced C57BL/6 mouse model of liver injury assessed as reduction in CCL2 mRNA expression in liver at 40 mg/kg, po administered 30 mins prior to CCl4 addition followed by compound redosing at 3 hrs interval for 9 hrs and measured 12 hrs […] by SYBR staining based RT-qPCR analysis; type: functional, organism-based
[16] = target: Mitogen-activated protein kinase kinase kinase 14 (Mus musculus) (UniProt Q9WUL6); assay: Inhibition of NIK in NIK adenovirus infected C57BL/6 mouse primary hepatocytes assessed as reduction in CCL5 mRNA expression measured after 16 hrs by SYBR staining based RT-qPCR analysis
[17] = Half life in ICR mouse at 5 mg/kg, iv by LC-MS/MS analysis; type: ADME, organism-based; settings: in vivo
[18] = system: Mus musculus; assay: Antiinflammatory activity in CCl4-induced C57BL/6 mouse model of liver injury assessed as reduction in TNFalpha mRNA expression in liver at 40 mg/kg, po administered 30 mins prior to CCl4 addition followed by compound redosing at 3 hrs interval for 9 hrs and measured 12 hrs […] by SYBR staining based RT-qPCR analysis; type: functional, organism-based
[19] = system: Mus musculus; assay: Antiinflammatory activity in CCl4-induced C57BL/6 mouse model of liver injury assessed as reduction in NOS2 mRNA expression in liver at 40 mg/kg, po administered 30 mins prior to CCl4 addition followed by compound redosing at 3 hrs interval for 9 hrs and measured 12 hrs […] by SYBR staining based RT-qPCR analysis; type: functional, organism-based
[20] = target: Mitogen-activated protein kinase kinase kinase 14 (Mus musculus) (UniProt Q9WUL6); assay: Inhibition of NIK in NIK/p100 adenoviruses infected C57BL/6 mouse primary hepatocytes assessed as suppression of NIK-mediated proteolysis of p100 to p52 by measuring reduction in p52 level measured after 16 hrs by Western blot analysis
[21] = target: T1, Mitogen-activated protein kinase kinase kinase 14; assay: Inhibition of recombinant human N-terminal GST-tagged NIK (318 to 947 residues) expressed in baculovirus infected Sf9 cells using ultrapure ATP as substrate measured after 1 hr by ADP-glo assay
[22] = AUC (0 to t) in ICR mouse at 5 mg/kg, iv by LC-MS/MS analysis; type: ADME, organism-based; settings: in vivo
[23] = target: Mitogen-activated protein kinase kinase kinase 14 (Mus musculus) (UniProt Q9WUL6); assay: Inhibition of NIK in NIK adenovirus infected C57BL/6 mouse primary hepatocytes assessed as reduction in CCL2 mRNA expression measured after 16 hrs by SYBR staining based RT-qPCR analysis
[24] = system: Mus musculus; assay: Antiinflammatory activity in CCl4-induced C57BL/6 mouse model of liver injury assessed as reduction in CCL5 mRNA expression in liver at 40 mg/kg, po administered 30 mins prior to CCl4 addition followed by compound redosing at 3 hrs interval for 9 hrs and measured 12 hrs […] by SYBR staining based RT-qPCR analysis; type: functional, organism-based
[25] = Half life in ICR mouse at 15 mg/kg, po by LC-MS/MS analysis; type: ADME, organism-based; settings: in vivo
[26] = Oral bioavailability in ICR mouse at 15 mg/kg by LC-MS/MS analysis; type: ADME, organism-based; settings: in vivo
[27] = target: Mitogen-activated protein kinase kinase kinase 14 (Mus musculus) (UniProt Q9WUL6); assay: Inhibition of NIK in NIK adenovirus infected C57BL/6 mouse primary hepatocytes assessed as reduction in NOS2 mRNA expression measured after 16 hrs by SYBR staining based RT-qPCR analysis
[28] = Stability of the compound in pH 1 aqueous solution; type: physicochemical; settings: buffer

SMILES: C[C@@](O)(C#Cc1ccc(F)c(-c2c[nH]c3cnc(N)nc23)c1)c1nccs1
- Activity [1]: Active
- Kd [2]: 4.9 nM
- Activity [3]: inactive
- Vd [4]: 26 L/kg
- Activity [5]: Active
- inhibition [6]: Dose-dependent effect
- Activity [7]: Active
- inhibition [8]: Dose-dependent effect
- Cmax [9]: 510 ng/mL
- Tmax [10]: 0.3 h
- Tmax [11]: 4.8 min
- clearance [12]: 92.4 mL/min/kg
- Cmax [13]: 3040 ng/mL
- AUC(0-t) [14]: 348 ng·h/mL
- Activity [15]: Active
- inhibition [16]: Dose-dependent effect
- half-life [17]: 3.28 h
- Activity [18]: Active
- Activity [19]: Active
- inhibition [20]: Dose-dependent effect
- IC50 [21]: 9.1 nM
- AUC(0-t) [22]: 891 ng·h/mL
- inhibition [23]: Dose-dependent effect
- Activity [24]: Active
- half-life [25]: 12 h
- bioavailability [26]: 13%
- inhibition [27]: Dose-dependent effect
- Stability [28]: Stable
